Reference: article PMC11189516, “Structure-guided conversion from an anaplastic lymphoma kinase inhibitor into Plasmodium lysyl-tRNA synthetase selective inhibitors” (Communications Biology, 2024)
“And” between values parts separate entries of the source, which are not always exact repeats. Equal entries are not always repeated.

Key:
[1] = tested on: erythrocytic-stage P. falciparum 3D7 parasites; test: In vitro Plasmodium growth assay; assay type: cell-based, Plasmodium falciparum; conditions: for HillSlope (best-fit value): Plasmodium falciparum 3D7; for LogIC50 (best-fit value): Plasmodium falciparum 3D7, log of nM; for IC50: Plasmodium falciparum 3D7, source data, read-out: IC50 (best-fit value); for EC50: Plasmodium falciparum, 3D7, 72 h
Protocol: Parasites were cultured in human O+ erythrocytes according to standard procedures. To prepare the >80% ring stage parasites, asynchronous cultures of parasites were pretreated with 5% sorbitol, and P. falciparum strain 3D7 at the mid-ring stage (6–10 h post-invasion) was used to test antimalarial effects in 96-well plates. Parasites were incubated in a 96-well plate with compound containing 1% parasitemia and, 2% hematocrit for a total volume of 200 μL. […] A relevant DMSO concentration was used as a negative control, and cultured erythrocytes without Plasmodium served as a positive control. The parasites were allowed to grow for 72 h at 37 °C with 5% CO2, 5% O2, and 90% N2. After 72 h, 100 μL of lysis buffer (0.12 mg·mL^−1 Saponin, 0.12% Triton X-100, 30 mM Tris-HCl pH 8.0, and 7.5 mM EDTA) with 5× SYBR Green I (Invitrogen; supplied in 10000× concentration) was added to each well of the plate. The plates were then incubated for 2 h in the dark prior to reading the fluorescence signal at 485 nm excitation and 535 nm emission. The percentage of inhibition was calculated by (NC-fluorescence) × 100/(NC-PC).

HepG2 cells = test: Cytotoxicity assay (CCK-8); assay type: cell-based, human; conditions: HepG2, 72 h
Protocol: (§1) HepG2 cells (National Collection of Authenticated Cell Cultures) were cultured in Minimum Essential Medium (Gibco) supplemented with 10% of fetal bovine serum, 100 U·mL^−1 penicillin, 100 U·mL^−1 streptomycin (Gibco), 2 mM L-Glutamine (Gibco), 1× NEAA (Gibco) and 1 mM Sodium Pyruvate (Gibco). The cells were hemi-depleted each week with fresh medium and maintained at 1 ~ 2 × 10^6 cells/mL in 6-cm dishes at 37 °C and 5% CO2. Tested with MycoBlue Mycoplasma Detector D101 (Vazyme), the cells were free from mycoplasma contamination.
(§2) Cell viability was analyzed by Cell Counting Kit-8 (CCK8, ApexBio) according to the manufacturer’s protocols. Cells were seeded and cultured at a density of 2.5 × 10^3 cells per well in 100 μL medium in 96-well microplates (Corning). Then, the cells were treated with different concentrations of compound (0, 1 μM, 3 μM, 10 μM, 100 μM, 300 μM). […] After treatment for 72 h, 10 μL of CCK-8 reagent was added to each well and then cultured for 4 h. All experiments were performed in pentaplicate. The absorbance was analyzed at 450 nm using a microplate reader (Tecan) using medium without cells as blanks. Data was processed using GraphPad Prism 9.

[2] = Cytotoxicity assay (CCK-8); assay type: cell-based, human; conditions: human, HepG2 cells; HepG2, 72 h
Protocol: as §1, §2

[3] = P. falciparum 3D7, Log(Concentration)/nM 2.290, single repeats
[4] = P. falciparum 3D7, Log(Concentration)/nM 2.592, single repeats
[5] = P. falciparum 3D7, Log(Concentration)/nM 2.893, single repeats
[6] = P. falciparum 3D7, Log(Concentration)/nM 3.193, single repeats
[7] = P. falciparum 3D7, Log(Concentration)/nM 3.496, single repeats
[8] = P. falciparum 3D7, Log(Concentration)/nM 3.796, single repeats
[9] = P. falciparum 3D7, Log(Concentration)/nM 4.097, single repeats
[10] = P. falciparum 3D7, Log(Concentration)/nM 4.398, single repeats
[11] = P. falciparum 3D7, Log(Concentration)/nM 4.699, single repeats
[12] = P. falciparum 3D7, Log(Concentration)/nM 5.000, single repeats

SMILES | % Inhibition [1, 3] | % Inhibition [1, 4] | % Inhibition [1, 5] | % Inhibition [1, 6] | % Inhibition [1, 7] | % Inhibition [1, 8] | % Inhibition [1, 9] | % Inhibition [1, 10] | % Inhibition [1, 11] | % Inhibition [1, 12] | HillSlope (best-fit value) [1] | LogIC50 (best-fit value) [1] | IC50 [1] | EC50 [1] | cytotoxicity to HepG2 (HepG2 cells) | CC50 at 72 h [2]
COc1ccc(OC)c(Nc2ncnc(Nc3ccccc3S(=O)(=O)C(C)C)n2)c1 [Compound 36] | -1.297% and 4.596% and -3.299% | 14.49% and 16.27% and 6.82% | 56.52% and 50.3% and 49.85% | 89.44% and 83.77% and 86.88% | 95.44% and 97.78% and 98.22% | 97.55% and 97.66% and 100.2% | 99.56% and 100.2% and 100.1% | 98.55% and 100.8% and 100.2% | 98.67% and 100.8% and 100.6% | 90.1% and 96% and 96.11% | 2.726 | 2.867 | 0.736 µM | 0.736 µM | no significant toxicity | –
COc1ccccc1Nc1ncnc(Nc2ccccc2S(=O)(=O)C(C)C)n1 [Compound 38] | 0.5244% and -0.5244% | 0.1049% and 1.993% | 5.139% and 2.098% | 11.12% and 9.229% | 30.2% and 31.57% | 64.29% and 65.65% | 93.45% and 91.87% | 99.84% and 98.9% | 100.4% and 99.63% | 98.16% and 95.65% | 2.23 | 3.663 | 4.61 µM | 4.61 ± 0.12 µM | – | 7.7 µM
